Experimental data published in the Deep4Chem optical property database.

Test: photoluminescence quantum yield (fraction); solvent given as SMILES

O=c1c2cc(-n3c4ccccc4c4ccccc43)ccc2sc2ccc(-n3c4ccccc4c4ccccc43)cc12
photoluminescence quantum yield (in O=P(c1ccccc1)(c1ccccc1)c1ccccc1Oc1ccccc1P(=O)(c1ccccc1)c1ccccc1): 0.412

CCN(CC)c1ccc2c(-c3ccccc3C(=O)O)c3c([o+]c2c1)/C(=C/c1ccc2c(c1)c1ccccc1n2CC)CCC3
photoluminescence quantum yield (in ClCCl): 0.08

c1ccc(-p2c3ccccc3c3sc4ccccc4c32)cc1 (stereo not drawn)
photoluminescence quantum yield (in ClCCl): 0.24

C(=C\c1cnc2ccccc2n1)/c1ccc(N(c2ccccc2)c2ccccc2)cc1
photoluminescence quantum yield (in ClCCl): 0.67

CCCCCCn1c2ccccc2c2cc(/C=C/c3cc(=O)oc4cc(C)ccc34)ccc21
photoluminescence quantum yield (in ClC(Cl)Cl): 0.38

CC(C)[Si]1(C(C)C)c2cc(C=O)ccc2-c2ccc(N(C)C)cc21
photoluminescence quantum yield (in C1CCCCC1): 0.08 | photoluminescence quantum yield (in CC#N): 0.81 | photoluminescence quantum yield (in CCO): 0.4 | photoluminescence quantum yield (in CCOCC): 0.79 | photoluminescence quantum yield (in CS(C)=O): 0.57 | photoluminescence quantum yield (in ClCCl): 0.71 | photoluminescence quantum yield (in c1ccccc1): 0.75

c1ccc(-c2cc3c(oc4ccccc43)c(-c3ccccc3)[o+]2)cc1
photoluminescence quantum yield (in CC#N): 0.18 | photoluminescence quantum yield (in ClCCCl): 0.1

COC(=O)c1ccc(/C=C2\N=C(c3ccc(OC)c(OC)c3)OC2=O)cc1
photoluminescence quantum yield (in C1COCCO1): 0.348

Cc1cccc(Nc2ccccc2C(=O)O)c1C
photoluminescence quantum yield (in C1CCCCC1): 0.0049 | photoluminescence quantum yield (in C1CCOC1): 0.0074 | photoluminescence quantum yield (in C1COCCO1): 0.0035 | photoluminescence quantum yield (in CC#N): 0.0013 | photoluminescence quantum yield (in CCOC(C)=O): 0.0032 | photoluminescence quantum yield (in CN(C)C=O): 0.0013

C=CB1C=Cc2ccc3ccccc3c2N1
photoluminescence quantum yield (in C1CCCCC1): 0.42

CC1=[N+]2C(=C(Oc3ccccc3)c3ccc(C)n3[B-]2(F)F)C=C1c1cc2n(c1)[B-](F)(F)[N+]1=CC=CC1=C2c1c(C)cc(C)cc1C
photoluminescence quantum yield (in C1CCCCC1): 0.89 | photoluminescence quantum yield (in CCOC(C)=O): 0.16

CCCCCOc1cc2oc(=O)c3c4occc4c4ccc5cccc6c(c1)c2c3c4c56
photoluminescence quantum yield (in C1CCOC1): 0.45

CC(C)(C)c1ccc(N2c3ccc(C(C)(C)C)cc3B3c4cc(C(C)(C)C)ccc4N(c4ccc(C(C)(C)C)cc4)c4cc(-n5c6ccc(C(C)(C)C)cc6c6cc(C(C)(C)C)ccc65)cc2c43)cc1
photoluminescence quantum yield (in Cc1ccccc1): 0.975

CCC1(CC)c2cc(B(c3c(C)cc(C)cc3C)c3c(C)cc(C)cc3C)ccc2-c2c1c1c(c3c2C(CC)(CC)c2cc(N(c4ccccc4)c4ccccc4)ccc2-3)C(CC)(CC)c2cc(N(c3ccccc3)c3ccccc3)ccc2-1
photoluminescence quantum yield (in C1CCOC1): 0.21

Oc1cc2ccc3cc(O)cc4ccc(c1)c2c34
photoluminescence quantum yield (in CO): 0.93

Cc1ccc(-n2c(C)ccc2C)cc1
photoluminescence quantum yield (in CC#N): 0.013 | photoluminescence quantum yield (in CCCCCC): 0.006

COc1ccc(C(=O)OCc2c(C)c(=O)n3c(=O)c(C)c(C)n23)cc1
photoluminescence quantum yield (in CCO): 0.637

CC(C)(C)c1ccc(N(c2ccc(S(=O)(=O)c3ccc(S(=O)(=O)c4ccc(N(c5ccc(C(C)(C)C)cc5)c5ccccc5C(C)(C)C)cc4)cc3)cc2)c2ccccc2C(C)(C)C)cc1
photoluminescence quantum yield (in Cc1ccccc1): 0.8

COc1ccc(C2=C(c3ccc(OC)cc3)c3cccc4c3c(cc3nc5ccccc5nc34)O2)cc1
photoluminescence quantum yield (in ClCCl): 0.48

C1=C(c2ccccc2)S[C@]23C1=C(c1ccccc1)[C@H](c1ccccc12)c1ccccc13
photoluminescence quantum yield (in ClCCl): 1

COc1ccc(C2=C(c3ccccc3)C(c3ccccc3)=[N+]3C2=Nc2c(-c4ccc(OC)cc4)c(-c4ccccc4)c(-c4ccccc4)n2[B-]3(F)F)cc1
photoluminescence quantum yield (in Cc1ccccc1): 0.04

c1cc(-c2ccc(-n3c4ccccc4c4ccccc43)cc2)c2nsnc2c1
photoluminescence quantum yield (in ClCCl): 0.68

N#CC=C(c1ccc(N2c3ccccc3Oc3ccccc32)cc1)c1ccc(N2c3ccccc3Oc3ccccc32)cc1
photoluminescence quantum yield (in Cc1ccccc1): 0.371

COC(=O)c1ccc(/C=C2\N=C(c3ccc(OC)c(OC)c3)NC2=O)cc1
photoluminescence quantum yield (in C1COCCO1): 0.295

CC(C)(C)c1ccc2c(c1)c1cc(C(C)(C)C)ccc1n2-c1ccc(N(c2ccc(-c3ccc(-c4ccc(-c5ccc(-c6ccc(-c7ccc(N(c8ccc(-n9c%10ccc(C(C)(C)C)cc%10c%10cc(C(C)(C)C)ccc%109)cc8)c8ccc(-n9c%10ccc(C(C)(C)C)cc%10c%10cc(C(C)(C)C)ccc%109)cc8)cc7)s6)s5)s4)s3)cc2)c2ccc(-n3c4ccc(C(C)(C)C)cc4c4cc(C(C)(C)C)ccc43)cc2)cc1
photoluminescence quantum yield (in ClCCl): 0.14

CCc1ccc(C2=[N+]3C(=Cc4c5ccc(OC)cc5c(-c5ccc(CC)s5)n4[B-]3(F)F)c3ccc(OC)cc32)s1
photoluminescence quantum yield (in ClCCl): 0.2

CCOC(=O)C1(O)c2cc3ccc4cccc5ccc(c2C(=O)N1C(C)(C)C)c3c45 (stereo not drawn)
photoluminescence quantum yield (in ClC(Cl)Cl): 0.152

COCCC1=Cc2nc1ccc1[nH]c(cc1CCOC)c1nc(ccc3[nH]c2cc3CCO)C(CCOC)=C1
photoluminescence quantum yield (in Cc1ccccc1): 0.32

CN(c1ccccc1)c1ccc(/C=C2\C(=O)c3ccccc3S2(=O)=O)cc1
photoluminescence quantum yield (in C1CCOC1): 0.003 | photoluminescence quantum yield (in C1COCCO1): 0.012 | photoluminescence quantum yield (in CC#N): 0.002 | photoluminescence quantum yield (in CC(C)=O): 0.001 | photoluminescence quantum yield (in CCOC(C)=O): 0.003 | photoluminescence quantum yield (in CN(C)C=O): 0.003 | photoluminescence quantum yield (in CO): 0.012 | photoluminescence quantum yield (in CS(C)=O): 0.018 | photoluminescence quantum yield (in Cc1ccccc1): 0.103 | photoluminescence quantum yield (in ClC(Cl)Cl): 0.008 | photoluminescence quantum yield (in ClCCl): 0.004
